Conditions: 101.33 kPa, Liquid

CCCCn1cc[n+](C)c1.F[P-](F)(F)(F)(F)F [1-butyl-3-methylimidazolium hexafluorophosphate]
Conditions	mass density [kg/m3]
283.13 K	1380.43
293.12 K	1372.15
293.3 K	1371.88
302.83 K	1363.87
303.3 K	1363.48
312.68 K	1355.45
313.17 K	1355.18
322.64 K	1347.23
323.23 K	1346.72
332.56 K	1338.7
333.66 K	1337.95
342.41 K	1330.79
343.27 K	1329.87
